# Measured values from PubChem BioAssay AID330 (DTP/NCI, 2004).
# “And” between values parts separate entries of the source, which are not always exact repeats. Identical values can stand only once. Toxic doses and inconclusive results are not listed.
# Test system: P388 leukemia ip, CD2F1 mice, survival T/C
# Assay: NCI In Vivo Anticancer Drug Screen. Data for tumor model P388 Leukemia (intraperitoneal) in CD2F1 (CDF1) mice
# Conditions: endpoint: median survival time, higher = longer survival
# In short: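 Mice carrying the transplanted tumor received test compound or vehicle. Survival was recorded in each group, and the value is the treated-group measurement divided by that of the vehicle-treated control group.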
# [1] = dose: 25.0 mg/kg/injection, schedule: Q01DX009 (ip), vehicle: saline with Tween-80
# [2] = dose: 50.0 mg/kg/injection, schedule: Q01DX009 (ip), vehicle: saline with Tween-80
# [3] = dose: 12.5 mg/kg/injection, schedule: Q01DX005 (ip), vehicle: saline
# [4] = dose: 6.25 mg/kg/injection, schedule: Q01DX009 (ip), vehicle: saline with Tween-80
# [5] = dose: 12.5 mg/kg/injection, schedule: Q01DX009 (ip), vehicle: saline with Tween-80
# [6] = dose: 50.0 mg/kg/injection, schedule: Q04DX003 (ip), vehicle: saline with Tween-80
# [7] = dose: 100.0 mg/kg/injection, schedule: Q04DX003 (ip), vehicle: saline with Tween-80
# [8] = dose: 50.0 mg/kg/injection, schedule: Q01DX005 (ip), vehicle: saline with Tween-80
# [9] = dose: 50.0 mg/kg/injection, schedule: Q01DX005 (ip), vehicle: saline
# [10] = dose: 200.0 mg/kg/injection, schedule: Q01DX005 (ip), vehicle: saline with Tween-80
# [11] = dose: 25.0 mg/kg/injection, schedule: Q01DX009 (ip), vehicle: saline
# [12] = dose: 50.0 mg/kg/injection, schedule: Q01DX009 (ip), vehicle: saline
# [13] = dose: 60.0 mg/kg/injection, schedule: Q01DX005 (ip), vehicle: saline with Tween-80
# [14] = dose: 120.0 mg/kg/injection, schedule: Q01DX005 (ip), vehicle: saline with Tween-80
# [15] = dose: 50.0 mg/kg/injection, schedule: Q01DX005 (ip), vehicle: Klucel (hydroxypropylcellulose) (HPC)
# [16] = dose: 100.0 mg/kg/injection, schedule: Q01DX005 (ip), vehicle: Klucel (hydroxypropylcellulose) (HPC)
# [17] = dose: 200.0 mg/kg/injection, schedule: Q01DX005 (ip), vehicle: Klucel (hydroxypropylcellulose) (HPC)
# [18] = dose: 100.0 mg/kg/injection, schedule: Q01DX005 (ip), vehicle: saline
# [19] = dose: 200.0 mg/kg/injection, schedule: Q01DX005 (ip), vehicle: saline
# [20] = dose: 50.0 mg/kg/injection, schedule: Q01DX009 (ip), vehicle: Klucel (hydroxypropylcellulose) (HPC)
# [21] = dose: 100.0 mg/kg/injection, schedule: Q01DX009 (ip), vehicle: Klucel (hydroxypropylcellulose) (HPC)
smiles,measurement,setting,value
CCCN(CCC)C(=O)c1ccc([N+](=O)[O-])cc1,T/C,[1],106 % of control
same,T/C,[2],113 % of control
same,T/C,"dose: 100.0 mg/kg/injection, schedule: Q01DX009 (ip), vehicle: saline with Tween-80",100 % of control and 104 % of control
same,T/C,"dose: 200.0 mg/kg/injection, schedule: Q01DX009 (ip), vehicle: saline with Tween-80",106 % of control
CCN(CC)CCn1c(C)nc2c1C(=O)c1nc(C)n(CCN(CC)CC)c1C2=O,T/C,"dose: 6.25 mg/kg/injection, schedule: Q01DX005 (ip), vehicle: saline",100 % of control
same,T/C,[3],109 % of control
COc1ccccc1N1CCN(CCc2c[nH]c3cc4c(cc23)OCO4)CC1,T/C,[4],92 % of control
same,T/C,[5],100 % of control
same,T/C,"dose: 12.5 mg/kg/injection, schedule: Q04DX003 (ip), vehicle: saline with Tween-80",114 % of control
same,T/C,"dose: 18.75 mg/kg/injection, schedule: Q01DX009 (ip), vehicle: Klucel (hydroxypropylcellulose) (HPC)",108 % of control
same,T/C,[1],101 % of control
same,T/C,"dose: 25.0 mg/kg/injection, schedule: Q04DX003 (ip), vehicle: saline with Tween-80",120 % of control
same,T/C,"dose: 37.5 mg/kg/injection, schedule: Q01DX009 (ip), vehicle: Klucel (hydroxypropylcellulose) (HPC)",101 % of control
same,T/C,[2],104 % of control
same,T/C,[6],123 % of control
same,T/C,"dose: 75.0 mg/kg/injection, schedule: Q01DX009 (ip), vehicle: Klucel (hydroxypropylcellulose) (HPC)",88 % of control
same,T/C,[7],121 % of control
O=[N+]([O-])c1ccc2c(c1)c(S(=O)(=O)O)cc1nonc12,T/C,[3],98 % of control
same,T/C,"dose: 25.0 mg/kg/injection, schedule: Q01DX005 (ip), vehicle: saline",95 % of control
same,T/C,[8],95 % of control
same,T/C,[9],90 % of control
same,T/C,[10],93 % of control
CCN(CC)CCCC(C)NC(=O)c1ccc2c(c1O)C(=O)c1ccccc1C2=O (configuration not stated),T/C,"dose: 1.25 mg/kg/injection, schedule: Q01DX009 (ip), vehicle: water",100 % of control and 102 % of control
same,T/C,"dose: 2.5 mg/kg/injection, schedule: Q01DX009 (ip), vehicle: water",101 % of control and 105 % of control
same,T/C,"dose: 5.0 mg/kg/injection, schedule: Q01DX009 (ip), vehicle: water",106 % of control and 108 % of control
same,T/C,"dose: 10.0 mg/kg/injection, schedule: Q01DX009 (ip), vehicle: water",99 % of control and 101 % of control and 94 % of control
same,T/C,"dose: 20.0 mg/kg/injection, schedule: Q01DX009 (ip), vehicle: water",99 % of control and 101 % of control
CC(=N\O)/C(=N/O)c1ccccc1,T/C,[6],106 % of control
same,T/C,[7],98 % of control
same,T/C,"dose: 200.0 mg/kg/injection, schedule: Q04DX003 (ip), vehicle: saline with Tween-80",98 % of control
same,T/C,"dose: 400.0 mg/kg/injection, schedule: Q04DX003 (ip), vehicle: saline with Tween-80",104 % of control
C=C1C=[n+]2ccccc2=N1,T/C,[11],93 % of control
same,T/C,[12],96 % of control
C=C=C(COC(C)=O)ON1CCC(C)CC1,T/C,"dose: 9.0 mg/kg/injection, schedule: Q01DX001 (ip), vehicle: saline",102 % of control
same,T/C,"dose: 18.12 mg/kg/injection, schedule: Q01DX001 (ip), vehicle: saline",102 % of control
same,T/C,"dose: 36.25 mg/kg/injection, schedule: Q01DX001 (ip), vehicle: saline",100 % of control
CSc1nc(NC2OCC(O)C(O)C2O)c(C=O)c(=O)[nH]1 (configuration not stated),T/C,"dose: 15.0 mg/kg/injection, schedule: Q01DX005 (ip), vehicle: saline with Tween-80",97 % of control
same,T/C,"dose: 30.0 mg/kg/injection, schedule: Q01DX005 (ip), vehicle: saline with Tween-80",109 % of control
same,T/C,[13],95 % of control
COc1ccc2c(c1)OC(C)(C)[C@H](c1ccc(O)cc1)[C@@H]2c1ccccc1,T/C,[13],90 % of control
same,T/C,[14],90 % of control
CC(=O)Nc1ccc(S(=O)(=O)n2c(=O)oc3ccc(Cl)cc32)cc1,T/C,[15],99 % of control
same,T/C,[16],94 % of control
same,T/C,[17],94 % of control
O=c1oc(-c2nc3sc4c(c3c(=O)o2)CCCC4)nc2sc3c(c12)CCCC3,T/C,[15],100 % of control
same,T/C,[16],100 % of control
same,T/C,[17],93 % of control
[N-]=[N+]=CC(=O)c1ccc(Cl)cc1,T/C,"dose: 100.0 mg/kg/injection, schedule: Q04DX003 (ip), vehicle: Klucel (hydroxypropylcellulose) (HPC)",108 % of control
same,T/C,"dose: 200.0 mg/kg/injection, schedule: Q04DX003 (ip), vehicle: Klucel (hydroxypropylcellulose) (HPC)",115 % of control
same,T/C,"dose: 400.0 mg/kg/injection, schedule: Q04DX003 (ip), vehicle: Klucel (hydroxypropylcellulose) (HPC)",107 % of control
c1ccc2c(CN3CCCCC3)c[nH]c2c1,T/C,[6],100 % of control
same,T/C,[7],90 % of control
C(=C1SCCCS1)c1cc2c(cc1OCc1ccccc1)OCO2,T/C,"dose: 100.0 mg/kg/injection, schedule: Q01DX001 (ip), vehicle: Klucel (hydroxypropylcellulose) (HPC)",100 % of control
same,T/C,"dose: 200.0 mg/kg/injection, schedule: Q01DX001 (ip), vehicle: Klucel (hydroxypropylcellulose) (HPC)",105 % of control
same,T/C,"dose: 400.0 mg/kg/injection, schedule: Q01DX001 (ip), vehicle: Klucel (hydroxypropylcellulose) (HPC)",102 % of control
CC(/C=C/c1ccc(O)cc1)=N\NC(N)=S,T/C,"dose: 3.75 mg/kg/injection, schedule: Q01DX005 (ip), vehicle: Klucel (hydroxypropylcellulose) (HPC)",103 % of control
same,T/C,"dose: 7.5 mg/kg/injection, schedule: Q01DX005 (ip), vehicle: Klucel (hydroxypropylcellulose) (HPC)",99 % of control
same,T/C,"dose: 15.0 mg/kg/injection, schedule: Q01DX005 (ip), vehicle: Klucel (hydroxypropylcellulose) (HPC)",99 % of control
same,T/C,"dose: 30.0 mg/kg/injection, schedule: Q01DX005 (ip), vehicle: Klucel (hydroxypropylcellulose) (HPC)",99 % of control and 104 % of control
CC(=O)SSC(C)(C)C,T/C,[9],105 % of control
same,T/C,[18],114 % of control
same,T/C,[19],103 % of control
O=C1CN2CCN3CC(=O)NC(=O)[C@H]3[C@H]2C(=O)N1,T/C,[13],101 % of control
same,T/C,[14],101 % of control
same,T/C,"dose: 240.0 mg/kg/injection, schedule: Q01DX005 (ip), vehicle: saline with Tween-80",93 % of control
CSC(=S)n1nc(-c2ccccc2)c(N=Nc2cccc(Cl)c2)c1-c1ccccc1,T/C,"dose: 100.0 mg/kg/injection, schedule: Q04DX002 (ip), vehicle: saline with Tween-80",107 % of control
same,T/C,"dose: 200.0 mg/kg/injection, schedule: Q04DX002 (ip), vehicle: saline with Tween-80",104 % of control
same,T/C,"dose: 400.0 mg/kg/injection, schedule: Q04DX002 (ip), vehicle: saline with Tween-80",119 % of control
C[Si](C)(C)CNCCNC[Si](C)(C)C,T/C,[13],105 % of control
same,T/C,[14],98 % of control
O=C1C=CC(=Nc2ccc(N(CCCl)CCCl)cc2)c2ccccc21,T/C,[20],171 % of control
same,T/C,[21],156 % of control and 181 % of control
C#CC(C)ON1C(=O)c2ccccc2C1=O (configuration not stated),T/C,"dose: 100.0 mg/kg/injection, schedule: Q01DX001 (ip), vehicle: other",109 % of control
same,T/C,"dose: 200.0 mg/kg/injection, schedule: Q01DX001 (ip), vehicle: other",100 % of control
same,T/C,"dose: 400.0 mg/kg/injection, schedule: Q01DX001 (ip), vehicle: other",100 % of control
Cc1ccc(C(=O)Nc2ccccn2)cc1,T/C,[20],100 % of control
same,T/C,[21],93 % of control
same,T/C,"dose: 200.0 mg/kg/injection, schedule: Q01DX009 (ip), vehicle: Klucel (hydroxypropylcellulose) (HPC)",100 % of control
O=S(=O)(O)c1ccc(OCCCCCCCCOc2ccc(S(=O)(=O)O)cc2)cc1,T/C,[9],112 % of control
same,T/C,[18],109 % of control
same,T/C,[19],100 % of control
N=C(N)SCc1nc(-c2ccc(Cl)cc2)no1,T/C,[4],109 % of control
same,T/C,"dose: 6.25 mg/kg/injection, schedule: Q01DX009 (ip), vehicle: saline",98 % of control
same,T/C,[5],106 % of control
same,T/C,"dose: 12.5 mg/kg/injection, schedule: Q01DX009 (ip), vehicle: saline",104 % of control and 106 % of control
same,T/C,[1],106 % of control
same,T/C,[11],108 % of control and 111 % of control
same,T/C,[2],113 % of control
same,T/C,[12],110 % of control and 121 % of control and 123 % of control
Cc1ccc(NC(=O)c2cc(C)ccc2N)cc1,T/C,[8],91 % of control
same,T/C,"dose: 100.0 mg/kg/injection, schedule: Q01DX005 (ip), vehicle: saline with Tween-80",91 % of control
same,T/C,[10],101 % of control
